From PubChem BioAssay (NCI)
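These data come from cells grown in 96-well plates and exposed to compound for 48 hours at five concentrations. GI50 = concentration required for 50% inhibition of growth. The concentration for full growth arrest is given as TGI.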

Experiments:
Assay in all cases: NCI-60 cell line screen, 48 h
[1] = test system: HL-60(TB) leukemia
[2] = test system: IGROV1 ovarian
[3] = test system: OVCAR-3 ovarian
[4] = test system: RXF 393 renal
[5] = test system: SF-539 CNS
[6] = test system: SK-MEL-5 melanoma
[7] = test system: SK-OV-3 ovarian
[8] = test system: UACC-62 melanoma
[9] = test system: UO-31 renal

O=C(C#Cc1c[nH]c(=O)[nH]c1=O)c1ccccc1
TGI [1]: 14.3 µM
TGI [2]: 32.5 µM
TGI [3]: 5.99 µM
TGI [4]: 6.05 µM
TGI [5]: 14.5 µM
TGI [6]: 25.2 µM
TGI [7]: 62.9 µM
TGI [8]: 21.8 µM
TGI [9]: 31.8 µM

Cc1ccc(C(=O)/C=C/c2ccccc2Cl)cc1
TGI [1]: 42.8 µM
TGI [2]: 32.9 µM
TGI [3]: 31 µM
TGI [5]: 38.9 µM
TGI [6]: 38.5 µM
TGI [7]: 99.5 µM
TGI [8]: 27.7 µM
TGI [9]: 32.8 µM

N#Cc1c(NC(=O)CCC(=O)O)ccc2ccccc12
TGI [2]: > 100 µM
TGI [3]: > 100 µM
TGI [4]: > 100 µM
TGI [5]: > 100 µM
TGI [6]: > 100 µM
TGI [7]: > 100 µM
TGI [8]: > 100 µM
TGI [9]: > 100 µM

CCCCCN(CCCCC)C(=O)[C@@H](CCC(=O)OCc1ccccc1)NC(=O)c1cc2ccccc2[nH]1
TGI [2]: > 100 µM
TGI [3]: > 100 µM
TGI [4]: > 100 µM
TGI [5]: > 100 µM
TGI [7]: > 100 µM
TGI [8]: > 100 µM
TGI [9]: > 100 µM

CSC(=S)NN=C1CCCCC1
TGI [2]: 43.3 µM
TGI [3]: > 100 µM
TGI [4]: > 100 µM
TGI [5]: 67.7 µM
TGI [6]: 37.7 µM
TGI [7]: > 100 µM
TGI [8]: 38 µM
TGI [9]: > 100 µM

COc1ccc(-c2c(N)[n+]([O-])c3cc(C)c(C)cc3[n+]2[O-])cc1OC
TGI [1]: > 100 µM
TGI [2]: > 100 µM
TGI [3]: > 100 µM
TGI [5]: > 100 µM
TGI [6]: 74.3 µM
TGI [7]: > 100 µM
TGI [8]: > 100 µM
TGI [9]: > 100 µM

C=C(CO)CC(O)c1ccccc1 (stereo not drawn)
TGI [1]: > 100 µM
TGI [2]: > 100 µM
TGI [3]: > 100 µM
TGI [4]: > 100 µM
TGI [5]: > 100 µM
TGI [6]: > 100 µM
TGI [7]: > 100 µM
TGI [8]: > 100 µM
TGI [9]: > 100 µM

COC(=O)C1CCc2c(OC)ccc(OC)c2C1=O (stereo not drawn)
TGI [1]: > 100 µM
TGI [2]: > 100 µM
TGI [3]: > 100 µM
TGI [5]: > 100 µM
TGI [6]: > 100 µM
TGI [7]: > 100 µM
TGI [8]: > 100 µM
TGI [9]: > 100 µM

COc1ccc(OC)c(-c2nc3sccn3c2/C=C2/C(=O)Nc3ccccc32)c1
GI50 [1]: 0.0524 µM
TGI [1]: 26.5 µM
GI50 [2]: 2.1 µM
TGI [2]: > 86.1 µM
GI50 [3]: 0.235 µM
TGI [3]: 0.586 µM
GI50 [4]: 0.553 µM
TGI [4]: 17.9 µM
TGI [6]: 0.997 µM
GI50 [7]: 0.584 µM
TGI [7]: 6.36 µM
GI50 [8]: 0.293 µM
TGI [8]: 12.8 µM
GI50 [9]: 1.1 µM
TGI [9]: > 41 µM

Fc1cccc(F)c1C1SCc2nc3ccccc3n21 (stereo not drawn)
TGI [1]: 82.7 µM
TGI [2]: > 100 µM
TGI [3]: > 100 µM
TGI [4]: > 100 µM
TGI [5]: > 100 µM
TGI [6]: 75.4 µM
TGI [7]: > 100 µM
TGI [8]: > 100 µM
TGI [9]: > 100 µM

CC(=O)O[C@H]1CCC2[C@@H]3CCC4C(=O)c5oncc5C[C@]4(C)C3CC[C@@]21C (stereo partly drawn)
TGI [1]: > 100 µM
TGI [2]: > 100 µM
TGI [3]: > 100 µM
TGI [4]: > 100 µM
TGI [6]: > 100 µM
TGI [7]: > 100 µM
TGI [8]: > 100 µM

CC(=O)N1c2ccccc2C23CCN4CC5=CCOC(O)C(C5CC42)C13 (stereo not drawn)
TGI [1]: > 100 µM
TGI [2]: > 100 µM
TGI [3]: > 100 µM
TGI [5]: > 100 µM
TGI [6]: > 100 µM
TGI [7]: > 100 µM
TGI [8]: > 100 µM
TGI [9]: > 100 µM

CC(NC1CCC[C@H]1O)c1ccccc1 (mixture of isomers)
TGI [1]: > 100 µM
TGI [2]: > 100 µM
TGI [3]: > 100 µM
TGI [4]: > 100 µM
TGI [5]: > 100 µM
TGI [6]: > 100 µM
TGI [7]: > 100 µM
TGI [8]: > 100 µM
TGI [9]: > 100 µM

CCCCCCCCCCCCCCCCCC(=O)NCCCNCCCNC(=O)CCCCCCCCCCCCCCCCC
TGI [1]: > 100 µM
TGI [2]: > 100 µM
TGI [3]: > 100 µM
TGI [6]: > 100 µM
TGI [7]: > 100 µM
TGI [8]: > 100 µM
TGI [9]: > 100 µM

CC(C)(C)C1CCC2c3c([nH]c4ccccc34)C3C(=O)N(c4ccc(Br)cc4)C(=O)C3C2C1 (stereo not drawn)
TGI [1]: 29.5 µM
TGI [2]: 48 µM
TGI [5]: 38.7 µM
TGI [6]: 62.2 µM
TGI [8]: > 100 µM
TGI [9]: 27.2 µM

COc1ccc(C(=O)C(C(=O)C(=O)Nc2nc3ccc(OC)cc3s2)c2ccc(OC)cc2)cc1 (stereo not drawn)
TGI [1]: > 100 µM
TGI [2]: > 100 µM
TGI [3]: > 100 µM
TGI [5]: > 100 µM
TGI [6]: > 100 µM
TGI [7]: > 100 µM
TGI [8]: > 100 µM
TGI [9]: > 100 µM

COCCOC(C)C(/C=N/NC(N)=S)=N/NC(N)=S (stereo not drawn)
TGI [1]: > 58.9 µM
GI50 [3]: 0.0252 µM
GI50 [4]: > 100 µM
TGI [4]: > 100 µM
GI50 [5]: > 100 µM
TGI [5]: > 100 µM
GI50 [6]: > 100 µM
TGI [6]: > 100 µM
GI50 [7]: > 100 µM
TGI [7]: > 100 µM
GI50 [8]: > 100 µM
TGI [8]: > 100 µM
GI50 [9]: 0.0513 µM
TGI [9]: > 100 µM

Nc1ccc(-c2ccc(-c3nc4ccccc4[nH]3)cc2)cc1
GI50 [2]: 26.2 µM
TGI [2]: > 82.4 µM
GI50 [3]: 1.2 µM
TGI [3]: 40.1 µM
GI50 [4]: 23.5 µM
TGI [4]: 82.9 µM
GI50 [5]: 0.208 µM
GI50 [6]: 14.9 µM
TGI [6]: > 100 µM
GI50 [7]: 46 µM
TGI [7]: > 100 µM
GI50 [8]: 0.61 µM
TGI [8]: 3.61 µM
GI50 [9]: 10.5 µM
TGI [9]: > 100 µM
